Results: patent publication US20230080670A1, “METHODS AND COMPOSITIONS FOR TREATING TUMORS USING TRANSCRIPTION INHIBITION AND DNA DAMAGE” (ARIZONA BOARD OF REGENTS ON BEHALF OF THE UNIVERSITY OF …, priority 2019, published 2023)
“Also recorded” adds a separate entry of the source.

Tests used:
A673 cells = experiment: MTT cell survival assay, A673 Ewing's sarcoma cell line; assay type: cell-based; conditions: 96 hours
Protocol: It was tested whether the functional interaction of EWS or FUS with the fusion protein driving Ewing's sarcoma would make these cells exceptionally sensitive to transcription inhibitors.
The DNA damage agent SN38 and the transcription inhibitor flavopiridol were titrated, and cell survival was measured after 96 hours using an MTT assay (see FIG. 3A).

gammaH2Ax [1] = experiment: Western blot of gammaH2Ax DNA damage response, A673 cells; assay type: cell-based
gammaH2Ax [2] = experiment: Western blot of gammaH2Ax DNA damage response, HEK293 cells; assay type: cell-based; conditions: flavopiridol added to SN38, 24 hours
Protocol: All doses shown are in nanomolar, nM.
Western blot analysis: Protein lysates concentrations were quantified using BCA Protein Assay (Pierce). 5-10 ug of protein sample was loaded onto 7.5% SDS-PAGE gels. Standard western blot protocols were followed. Blots were transferred at 500 mA, blocked in 5% nonfat dried milk in TBS-T, and incubated overnight with primary antibody at 4° C. Blots were washed in TBS-T, incubated in secondary antibody for 1 hour at room temperature, washed again in TBS-T, and imaged after the addition of SuperSignal™ West Pico PLUS Chemiluminescent substrate (Thermo Scientific). Western blots were imaged on the ChemiDoc.

patients = conditions: therapeutic doses; cited from earlier work

Row | Compound | toxicity (cell survival, MTT assay) (A673 cells; 1.3 nM SN38 alone) | gammaH2Ax DNA damage response (gammaH2Ax [1]; SN38 for 24 hours without transcription inhibitor, Ewing's sarcoma cell line) | toxicity (cell survival, MTT assay) (A673 cells; 100 nM flavopiridol alone) | inhibition of the gamma H2Ax response to DNA damage (quantification of western blots) (gammaH2Ax [1]; A673 cells, 10 nM, 50 nM and 100 nM flavopiridol) | effect on phosphorylation of histone to gammaH2Ax (DNA damage response) (gammaH2Ax [1]; transcription inhibitor added to SN38, 24 hours, Ewing's sarcoma cell line) | effect on gammaH2Ax response to DNA damage (gammaH2Ax [2]) | toxicity in patients (patients)
1 | CCc1c2c(nc3ccc(O)cc13)-c1cc3c(c(=O)n1C2)COC(=O)[C@]3(O)CC [SN38] | No toxicity | standard DNA damage response |  |  |  |  | 
2 | CN1CC[C@H](c2c(O)cc(O)c3c(=O)cc(-c4ccccc4Cl)oc23)[C@H](O)C1 [flavopiridol] |  |  | No toxicity | dose-dependent inhibition | prevented this event | does not prevent the normal cellular response to DNA damage; also recorded: had no such effect | significant toxicity
